Measured values published in patent publication US12029748B2, “Synergistic composition for maintenance of healthy balance of microflora” (KIMBERLY-CLARK WORLDWIDE, INC., priority 2017, dated 2024).
Where a SMILES comes first, the peptide text is derived from it.

Experiments:
L. crispatus and E. coli = assay: Therapeutic Effect Protocol: L. crispatus / E. coli co-culture, ratio after 36 hours; format: cell-based, Lactobacillus crispatus; E. coli; settings: for Therapeutic Efficacy Results (Lactobacillus/E. coli) 0.10%: nitrogen compound 0.10 wt/vol % with 1.0 wt/vol % α methyl-D glucoside (10:1); for Therapeutic Efficacy Results (Lactobacillus/E. coli) 0.10% / Therapeutic Efficacy Results (Lactobacillus/E. coli) 0.50% / Therapeutic Efficacy Results (Lactobacillus/E. coli) 1.00%: 36 hours anaerobic co-culture, 37° C.; for Therapeutic Efficacy Results (Lactobacillus/E. coli) 0.50%: nitrogen compound 0.50 wt/vol % with 1.0 wt/vol % α methyl-D glucoside (2:1); for Therapeutic Efficacy Results (Lactobacillus/E. coli) 1.00%: nitrogen compound 1.00 wt/vol % with 1.0 wt/vol % α methyl-D glucoside (1:1); for Therapeutic effect of other saccharides: saccharide other than α methyl-D glucoside, by itself or with a nitrogen containing compound
Procedure: As used herein the term “therapeutic effect” refers to the ability of the compositions and formulations of the present invention to stimulate the growth of Lactobacillus relative E. coli measured according to the Therapeutic Effect Protocol described below. Generally, therapeutic effect is expressed as a ratio of Lactobacillus to E. coli and is desirably greater than about 2, more preferably greater than about 20 and more desirably greater than about 100.
The data in Table 1 was tested according to the Therapeutic Effect Protocol as described further herein. The nitrogen compounds were tested for their therapeutic efficacy at three different concentrations when combined with α methyl-D glucoside (1% wt/vol %). The concentrations of the nitrogen containing compounds that were tested were 1% wt/vol %, 0.5% wt/vol %, and 0.1% wt/vol %.
Colonies of L. crispatus and E. coli were prepared as follows. A colony of L. crispatus was transferred to 7 ml de Man, Rogosa & Sharpe (MRS) broth and incubated anaerobically (using BD GasPak EZ anaerobe container system with indicator) at 37° C. without shaking for 18-20 hours. A colony of E. coli was transferred to 5 ml Tryptic Soy Broth (TSB) and incubated aerobically (shaking at 100 rpm) at 37° C. for 18-20 hours.
Colonies were then inoculated as follows. Bacterial cultures were gently vortexed and 1 mL of each culture was transferred to a corresponding 2.0 mL micro-centrifuge tube and then centrifuged for two minutes at 14,500 rpm. The cultural supernatant was removed and the cell pellet was re-suspended in 1 mL of 0.95% (wt/vol %) saline. […] For L. crispatus, the pellet was re-suspended in 1 mL of 0.95% saline to achieve ˜10^7-10^8 cfu/mL. For E. coli, the pellet was re-suspended in 1 mL of 0.95% saline to achieve ˜10^8-10^9 cfu/mL.
Media were prepared as follows.
(§1) All of the ingredients in Table 2 were combined and the pH was adjusted to 6.5. […] To evaluate the effect of various nitrogen containing therapeutic agents on the growth of bacteria, the LAPT-g media, prepared as described above, was supplemented with various nitrogen containing compound therapeutic agents to a final test concentration between 0.1 and 1.0%. As initial screening measures, solubility and initial pH of each composition were checked. If a specific composition was insoluble (as detected by visual indication of precipitates or turbidity), then no further therapeutic efficacy testing was undertaken on that composition. Additionally, if the initial pH of the composition was below 5.5 (“Low”) or was above 6.5 (“High”), then no further therapeutic efficacy testing was undertaken on that composition.
Five milliliters (5 mL) of each medium was transferred to a test tube in duplicates for subsequent inoculation. A master mixture of L. crispatus and E. coli, prepared as described above, was prepared in 1,000:1 ratio. Each (5 ml) test tube was inoculated with the master mixture to give 10^5-10^6 total CFU L. crispatus and 100-1,000 total CFU E. coli per tube.
To establish a negative control, one tube was vortexed and 100 μL was removed to determine the initial cell concentrations by serial dilutions and plating (2 plates per dilution). L. crispatus is selected on MRS agar plates incubated anaerobically at 37° C. for two days. E. coli is selected on TSA plates incubated aerobically at 37° C. for one day. The co-cultures were incubated in an anaerobic container with BD GasPaks at 37° C. for 36 hours.
The effect of the α methyl-D glucoside and the nitrogen containing compound therapeutic agents on the ratio of L. crispatus to E. coli was measured 36 hours after inoculation and a final pH of the test solutions was recorded. The co-culture tube was vortexed and 100 μL was removed to determine the final cell concentrations by serial dilutions and plating (2 plates per dilution). L. crispatus is selected on MRS agar plates incubated anaerobically at 37° C. for two days.

[1] = Initial pH screening of the composition; format: physicochemical; settings: for I pH (initial pH), 0.10%: nitrogen compound 0.10 wt/vol % with 1.0 wt/vol % α methyl-D glucoside in medium; for I pH (initial pH), 0.50%: nitrogen compound 0.50 wt/vol % with 1.0 wt/vol % α methyl-D glucoside in medium; for I pH (initial pH), 1.00%: nitrogen compound 1.00 wt/vol % with 1.0 wt/vol % α methyl-D glucoside in medium
Source text: Each composition in Table 1 went through initial screening measures of solubility and initial pH (“I pH”). […] When a specific concentration of a nitrogen containing compound was insoluble, the initial and final pH (“F pH”) of the combined composition was not measured and accordingly are each marked as “NM.” Additionally, initial pH of the composition was checked as a screening measure. The initial pH was marked as either Low (“L”), High (“H”), or Pass (“P”). A Low initial pH corresponds to an initial pH being less than 5.5, a High initial pH corresponds to an initial pH being greater than 6.5, and a Pass initial pH corresponds to the pH being at or between 5.5-6.5. […] As part of the Therapeutic Effect Protocol, a final pH was also measured after the compositions that were tested against the Lactobacillus and E. coli.
as §1

| Compound | Therapeutic Efficacy Results (Lactobacillus/E. coli) 0.10% (L. crispatus and E. coli) | Therapeutic Efficacy Results (Lactobacillus/E. coli) 0.50% (L. crispatus and E. coli) | Therapeutic Efficacy Results (Lactobacillus/E. coli) 1.00% (L. crispatus and E. coli) | also measured |
| --- | --- | --- | --- | --- |
| N=C(N)NCCC[C@@H](N)C(=O)O [D-Arginine] | 0.35 | – | – | – |
| N[C@@H](CCC(=O)O)C(=O)O [L-Glutamic Acid] | 2.81 | – | – | – |
| N[C@H](CO)C(=O)O [D-Serine] | 0.06 | <1.00 | 0.03 | – |
| CSCC[C@H](N)C(=O)N[C@@H](C)C(=O)O [Met-Ala] (H-Met-Ala-OH) | 7.33 | – | – | Therapeutic effect when ratio α methyl-D glucoside : nitrogen compound is at least about 2:1, but not at 1:1 (L. crispatus and E. coli; with α methyl-D glucoside, ratio at least about 2:1, not 1:1): provided a therapeutic effect; I pH (initial pH), 0.10% [1]: P (a Pass initial pH corresponds to the pH being at or between 5.5-6.5); I pH (initial pH), 0.50% [1]: L (A Low initial pH corresponds to an initial pH being less than 5.5); I pH (initial pH), 1.00% [1]: L (A Low initial pH corresponds to an initial pH being less than 5.5) |
| N[C@@H](CC(=O)O)C(=O)O [L-Aspartic Acid] | 1.36 | – | – | – |
| Ammonium Citrate | >260 | 4.93E−04 | 3.15E−08 | – |
| Nc1ccn([C@@H]2O[C@H](CO)[C@@H](O)[C@H]2O)c(=O)n1 [Cytidine] | >103 | 3.85E+03 | 3.09 | – |
| O=C[C@@H](O)[C@H](O)[C@H](O)CO [D-arabinose] | – | – | – | Therapeutic effect of other saccharides (L. crispatus and E. coli): not able to provide a therapeutic effect |
| N.O.O.O.O.O=P([O-])(O)O.[Na+] [Ammonium Sodium Phosphate] | 0.25 | – | – | – |
| O=C(O)CC[C@@H](C(=O)O)N1C(=O)c2ccccc2C1=O [n-phthaloyl-l-glutamic acid] | – | – | – | I pH (initial pH), 0.10% [1]: L (A Low initial pH corresponds to an initial pH being less than 5.5); I pH (initial pH), 0.50% [1]: L (A Low initial pH corresponds to an initial pH being less than 5.5); I pH (initial pH), 1.00% [1]: L (A Low initial pH corresponds to an initial pH being less than 5.5) |
| NCC(=O)O [Glycine] | 0.56 | 20.5 | 950 | – |
| OC[C@H]1O[C@H](OC[C@H]2O[C@H](OC[C@H]3O[C@H](O[C@]4(CO)O[C@H](CO)[C@@H](O)[C@@H]4O)[C@H](O)[C@@H](O)[C@@H]3O)[C@H](O)[C@@H](O)[C@H]2O)[C@H](O)[C@@H](O)[C@H]1O [stachyose] | – | – | – | Therapeutic effect of other saccharides (L. crispatus and E. coli): not able to provide a therapeutic effect |
| O=C(O)[C@@H]1CCCN1 [L-Proline] | 1.88 | 0.55 | 1.25 | – |
| N=C(N)NCCC[C@H](N)C(=O)O [L-Arginine] | 0.58 | – | – | – |
| NCCc1c[nH]cn1 [Histamine] | – | – | – | I pH (initial pH), 0.10% [1]: H (a High initial pH corresponds to an initial pH being greater than 6.5); I pH (initial pH), 0.50% [1]: H (a High initial pH corresponds to an initial pH being greater than 6.5); I pH (initial pH), 1.00% [1]: H (a High initial pH corresponds to an initial pH being greater than 6.5) |
| NCCCC(=O)O [DL-gamma-amino-n-butyric acid] | 0.836 | 246.6 | 1.86 | – |
| CCCCCN [N-Amylamine] | – | – | – | I pH (initial pH), 0.10% [1]: H (a High initial pH corresponds to an initial pH being greater than 6.5); I pH (initial pH), 0.50% [1]: H (a High initial pH corresponds to an initial pH being greater than 6.5); I pH (initial pH), 1.00% [1]: H (a High initial pH corresponds to an initial pH being greater than 6.5) |
